Measured values reported in patent publication US6706509B2, “Oncoprotein protein kinase” (The Regents of the University of California, priority 1993, dated 2004).

System: JNK1
Assay: Epitope-tagged JNK1 protein kinase activity in transfected COS cells
Type: cell-based
Conditions: 10 nM EGF or 100 nM TPA
Procedure: JNK1 protein kinase activity was detected in the immune-complex. Immunecomplex kinase assays using either M2 immunoprecipitates or purified JNK1, JNK-46, and ERK1 or ERK2 were performed at 30° C. for 20 mins using 3 μg of substrate, 20 μM ATP and 5 μCi of [γ-^32P]ATP in 30 μl of kinase buffer (25 mM Hepes (pH 7.6), 20 mM MgCl2, 20 mM β-glycerophosphate, 20 mM p-nitrophenyl phosphate, 0.1 mM Na orthovanadate, 2 mM DTT). The reactions were terminated with Laemmli sample buffer and the products were resolved by SDS-PAGE (12% gel). JNK1 protein activity was also measured after SDS-PAGE by the in-gel kinase assay with the substrate GST-cJun(1-79) as described by Hibi, et al., supra, (1993). Solid-phase protein kinase assays were performed as described by Hibi, et al., supra, (1993). Clarified cell extracts were incubated with GST fusion proteins immobilized on GSH-agarose beads. After 3 hours at 4° C., the beads were washed extensively and bound JNK1 was detected by the addition of [γ-^32P]ATP. The reaction was terminated after 10 mins at 30° C. and the products were resolved by SDS-PAGE. The incorporation of [^32P]phosphate was visualized by autoradiography and quantitated with a phosphorimager and ImageQuant software (Molecular Dynamics Inc., Sunnyvale, Calif.). The methods used for phosphopeptide mapping (Boyle, et al., Cell 64:573-584, 1991) and phosphoamino acid analysis (Alvarez, et al., J. Biol. Chem 266:15227-15285, 1991) were described previously.
Epitope-tagged JNK1 was expressed in COS cells. Control experiments were performed using mock-transfected cells. After 48 hours, the cells were treated either without or with 100 nM TPA, 10 nM EGF, or 80 J/m^2 UV-C and incubated for 1 hr. The cells were lysed in RIPA buffer and the JNK1 proteins were isolated by immunoprecipitation with the M2 monoclonal antibody. JNK1 protein kinase activity was measured after SDS-PAGE using an in-gel kinase assay with the substrate GST-cJun(1-79) polymerized into the gel.
COS-1 cells were maintained in. Dulbecco's modified Eagle's medium supplemented with 5% […] (Gibco-BRL). Metabolic labeling with [^32P]phosphate was performed by incubation of cells in phosphate-free modified Eagle's medium (Flow Laboratories Inc.) supplemented with 0.1% fetal bovine serum and 1 mCi/ml [^32P]orthophosphate (Dupont-NEN). COS cells were treated with 10 nM EGF or 100 nM thorbol myristate acetate. The cells were then incubated for defined times at 37° C. prior to harvesting and measurement of JNK1 protein kinase activity. The data are presented as arbitrary units. […] In contrast, exposure to UV radiation caused a marked increase in JNK1 activity.

Substance: EGF: EGF, used at 10 nM to treat COS cells (NSDSECPLSHDGYCLHDGVCMYIEALDKYACNCVVGYIGERCQYRDLKWWELR; UniProt P01133 971-1023, looked up)
- JNK1 activation: low level of JNK1 activation
- duration of JNK1 activation: approximately 2 hours
